Test results reported in patent US20240158394A1, “NEK7 INHIBITORS” (Halia Therapeutics, Inc., priority 2022, published 2024).

Molecular target: full-length recombinant human NEK7 (Homo sapiens (Human), UniProt Q8TDX7)
Assay: NEK7 Enzymatic Assay
Assay type: biochemical
Details: casein substrate, [33P]-ATP, 2 hours at room temperature
Description: Casein substrate (from bovine milk, hydrolyzed and partially dephosphorylated mixture of α, β and κ caseins, obtained from Sigma Aldrich, catalogue #C4765, diluted in distilled water to a final concentration of 1 mg/mL) and full-length recombinant human NEK7 (expressed by baculovirus in Sf9 insect cells using a N-terminal GST tag, obtained from SignalChem, catalogue #N09-10G, 0.1 μg/μL) were mixed in assay buffer (20 mM HEPES pH 7.5, 10 mM MgCl2, 1 mM EGTA, 0.02% Brij35, 0.02 mg/mL BSA, 0.1 mM Na3VO4, 2 mM DTT, 1% DMSO). Compounds of interest (serial 3-fold dilution in DMSO from 10 μM to 0.5 nM) or vehicle (1% DMSO) were dispensed into the kinase reaction mixture by Acoustic technology (Echo550; nanoliter range). After incubation at room temperature for 20 minutes, the kinase reaction was initiated by addition of [^33P]-ATP (specific activity 10 μCi/μL) and the mixture was incubated at room temperature for 2 hours. The reaction was then stopped by spotting the reaction mixture on strips of phosphocellulose P81 paper. Following washing, the radioactivity of the P81 paper was measured and kinase activity data were expressed as the percent remaining kinase activity in test samples compared to vehicle reactions. IC50 values and curve fits were obtained using Prism (GraphPad Software).

full-length recombinant human NEK7, sequence (Q8TDX7 whole entry): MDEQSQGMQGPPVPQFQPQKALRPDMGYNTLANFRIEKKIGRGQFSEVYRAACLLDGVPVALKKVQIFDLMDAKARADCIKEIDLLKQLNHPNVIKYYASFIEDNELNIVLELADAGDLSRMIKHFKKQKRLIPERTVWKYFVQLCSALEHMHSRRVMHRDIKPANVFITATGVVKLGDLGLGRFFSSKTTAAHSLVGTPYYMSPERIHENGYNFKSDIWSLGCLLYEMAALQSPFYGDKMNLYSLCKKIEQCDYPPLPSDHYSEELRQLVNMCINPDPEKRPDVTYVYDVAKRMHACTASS

IC50	Compound
> 2000 nM	CCN1CCC(Oc2ccc(NC(=O)Nc3ccc(-c4cn(C5CC5)c5ncnc(N)c45)c4c3OC(C)(C)C4)cc2C(F)(F)F)CC1 [Example I-123, 1-(4-(4-amino-7-cyclopropyl-7H-pyrrolo[2,3-d]pyrimidin-5-yl)-2,2-dimethyl-2,3-dihydrobenzofuran-7-yl)-3-(4-((1-ethylpiperidin-4-yl)oxy)-3-(trifluoromethyl)phenyl)urea]
> 2000 nM	CCN1CCC(Oc2ccc(NC(=O)Nc3ccc(-c4cn(C5CC5)c5ncnc(N)c45)c4c3OC(C)C4)cc2C(F)(F)F)CC1 (stereo not drawn) [Example I-121, 1-(4-(4-amino-7-cyclopropyl-7H-pyrrolo[2,3-d]pyrimidin-5-yl)-2-methyl-2,3-dihydro-benzofuran-7-yl)-3-(4-((1-ethylpiperidin-4-yl)oxy)-3-(trifluoromethyl)phenyl)urea]
< 200 nM	CN1CCN(Cc2ccc(NC(=O)Nc3ccc(-c4cn(C5CCC5)c5ncnc(N)c45)n4ccnc34)cc2C(F)(F)F)CC1 [Example I-129, 1-(5-(4-amino-7-cyclobutyl-7H-pyrrolo[2,3-d]pyrimidin-5-yl)imidazo[1,2-a]pyridin-8-yl)-3-(4-((4-methylpiperazin-1-yl)methyl)-3-(trifluorometh-yl)phenyl)urea]
> 2000 nM	CC1Cc2c(-c3cn(C4CC4)c4ncnc(N)c34)ccc(NC(=O)Nc3ccc(OC4CCN(C)CC4)c(C(F)(F)F)c3)c2O1 (stereo not drawn) [Example I-58, 1-(4-(4-amino-7-cyclopropyl-7H-pyrrolo[2,3-d]pyrimidin-5-yl)-2-methyl-2,3-dihydro-benzofuran-7-yl)-3-(4-((1-methylpiperidin-4-yl)oxy)-3-(trifluoromethyl)phenyl)urea]
< 200 nM	CCN1CCN(Cc2ccc(NC(=O)Nc3ccc(-c4cn(C5CC5)c5ncnc(N)c45)n4ccnc34)cc2C(F)(F)F)CC1 [Example I-35, 1-(5-(4-amino-7-cyclopropyl-7H-pyrrolo[2,3-d]pyrimidin-5-yl)imidazo[1,2-a]pyridin-8-yl)-3-(4-((4-ethylpiperazin-1-yl)methyl)-3-(trifluorometh-yl)phenyl)urea]
> 2000 nM	CN1CCC(Oc2ccc(NC(=O)Nc3ccc(-c4cn(C5CC5)c5ncnc(N)c45)c4c3OC(C)(C)C4)cc2C(F)(F)F)CC1 [Example I-61, 1-(4-(4-amino-7-cyclopropyl-7H-pyrrolo[2,3-d]pyrimidin-5-yl)-2,2-dimethyl-2,3-dihydrobenzofuran-7-yl)-3-(4-((1-methylpiperidin-4-yl)-oxy)-3-(trifluoromethyl)phen-yl)urea]
< 200 nM	CN1CCC(Oc2ccc(NC(=O)Nc3ccc(-c4cn(C5CC5)c5ncnc(N)c45)c4cnoc34)cc2C(F)(F)F)CC1 [Example I-70, 1-(4-(4-amino-7-cyclopropyl-7H-pyrrolo[2,3-d]pyrimidin-5-yl)benzo[d]isoxazol-7-yl)-3-(4-((1-methylpiperidin-4-yl)oxy)-3-(trifluoromethyl)-phenyl)urea]
< 200 nM	CN1CCN(Cc2ccc(NC(=O)Nc3ccc(-c4cn(C5CC5)c5ncnc(N)c45)c4nonc34)cc2C(F)(F)F)CC1 [Example I-78, 1-(7-(4-amino-7-cyclopropyl-7H-pyrrolo[2,3-d]pyrimidin-5-yl)benzo[c][1,2,5]oxadiazol-4-yl)-3-(4-((4-methylpiperazin-1-yl)methyl)-3-(trifluorometh-yl)phenyl)urea]
> 2000 nM	CN1CCN(Cc2ccc(NC(=O)Nc3ccc(-c4cn(C5CC5)c5ncnc(N)c45)c4c3OC(C)(C)C4)cc2C(F)(F)F)CC1 [Example I-60, 1-(4-(4-amino-7-cyclopropyl-7H-pyrrolo[2,3-d]pyrimidin-5-yl)-2,2-dimethyl-2,3-dihydrobenzofuran-7-yl)-3-(4-((4-methylpiperazin-1-yl)-methyl)-3-(trifluoromethyl)-phenyl)urea]

The remaining lines, values behind:

Compound	IC50
CC1(c2cc(NC(=O)Nc3ccc(-c4cn(C5CC5)c5ncnc(N)c45)n4ccnc34)on2)CC1 [Example I-18, 1-(5-(4-amino-7-cyclopropyl-7H-pyrrolo[2,3-d]pyrimidin-5-yl)imidazo[1,2-a]pyridin-8-yl)-3-(3-(1-methylcyclo-propyl)isoxazol-5-yl)urea]	< 200 nM
Nc1ncnc2c1c(-c1ccc(NC(=O)Nc3cc(C4(C(F)(F)F)CC4)no3)c3cnccc13)cn2C1CC1 [Example I-7, 1-(5-(4-amino-7-cyclopropyl-7H-pyrrolo[2,3-d]pyrimidin-5-yl)isoquinolin-8-yl)-3-(3-(1-(trifluoromethyl)cyclopropyl)-isoxazol-5-yl)urea]	500 to 2000 nM
CC(C)c1cc(NC(=O)Nc2ccc(-c3cn(C4CC4)c4ncnc(N)c34)n3ccnc23)on1 [Example I-16, 1-(5-(4-amino-7-cyclopropyl-7H-pyrrolo[2,3-d]pyrimidin-5-yl)imidazo[1,2-a]pyridin-8-yl)-3-(3-isopropylisoxazol-5-yl)urea]	< 200 nM
CN1CCC(n2cc(-c3ccc(NC(=O)Nc4cc(C5(C(F)(F)F)CC5)on4)c4nccn34)c3c(N)ncnc32)CC1 [Example I-95, 1-(5-(4-amino-7-(1-methyl-piperidin-4-yl)-7H-pyrrolo-[2,3-d]pyrimidin-5-yl)imid-azo[1,2-a]pyridin-8-yl)-3-(5-(1-(trifluoromethyl)cyclo-propyl)isoxazol-3-yl)urea]	200 to 500 nM
CC(C)(C)c1cc(NC(=O)Nc2ccc(-c3cn(C4CC4)c4ncnc(N)c34)n3ccnc23)n(-c2ccc(Cl)cc2)n1 [Example I-13, 1-(5-(4-amino-7-cyclopropyl-7H-pyrrolo[2,3-d]pyrimidin-5-yl)imidazo[1,2-a]pyridin-8-yl)-3-(3-(tert-butyl)-1-(4-chlorophenyl)-1H-pyrazol-5-yl)urea]	500 to 2000 nM
CCN1CCC(Oc2ccc(NC(=O)Nc3ccc(-c4cn(C5CC5)c5ncnc(N)c45)c4cnoc34)cc2C(F)(F)F)CC1 [Example I-125, 1-(4-(4-amino-7-cyclopropyl-7H-pyrrolo[2,3-d]pyrimidin-5-yl)benzo[d]isoxazol-7-yl)-3-(4-((1-ethylpiperidin-4-yl)oxy)-3-(trifluoromethyl)phenyl)urea]	200 to 500 nM
Nc1ncnc2c1c(-c1ccc(NC(=O)Nc3cc(C4CC4)on3)c3nccn13)cn2C1CC1 [Example I-120, 1-(5-(4-amino-7-cyclopropyl-7H-pyrrolo[2,3-d]pyrimidin-5-yl)imidazo[1,2-a]pyridin-8-yl)-3-(5-cyclopropylisoxazol-3-yl)urea]	< 200 nM
CN1CCN(Cc2ccc(NC(=O)Nc3ccc(-c4cn(CC(C)(C)O)c5ncnc(N)c45)n4ccnc34)cc2C(F)(F)F)CC1 [Example I-131, 1-(5-(4-amino-7-(2-hydroxy-2-methylpropyl)-7H-pyrrolo[2,3-d]pyrimidin-5-yl)imidazo[1,2-a]pyridin-8-yl)-3-(4-((4-meth-ylpiperazin-1-yl)methyl)-3-(trifluoromethyl)phenyl)urea]	< 200 nM
Nc1ncnc2c1c(-c1ccc(NC(=O)Nc3cc(C4(C(F)(F)F)CC4)on3)c3nccn13)cn2CCO [Example I-85, 1-(5-(4-amino-7-(2-hydroxy-ethyl)-7H-pyrrolo[2,3-d]pyr-imidin-5-yl)imidazo[1,2-a]-pyridin-8-yl)-3-(5-(1-(tri-fluoromethyl)cyclopropyl)-isoxazol-3-yl)urea]	< 200 nM
Nc1ncnc2c1c(-c1ccc(NC(=O)Nc3ccc(CN4CCN(CCF)CC4)c(C(F)(F)F)c3)c3nccn13)cn2C1CC1 [Example I-41, 1-(5-(4-amino-7-cyclopropyl-7H-pyrrolo[2,3-d]pyrimidin-5-yl)imidazo[1,2-a]pyridin-8-yl)-3-(4-((4-(2-fluoroethyl)-piperazin-1-yl)methyl)-3-(trifluoromethyl)phenyl)urea]	< 200 nM
CC(C)n1cc(-c2ccc(NC(=O)Nc3cc(C4(C(F)(F)F)CC4)on3)c3nccn23)c2c(N)ncnc21 [Example I-83, 1-(5-(4-amino-7-isopropyl-7H-pyrrolo[2,3-d]pyrimidin-5-yl)imidazo[1,2-a]pyridin-8-yl)-3-(5-(1-(trifluorometh-yl)cyclopropyl)isoxazol-3-yl)-urea]	< 200 nM
Nc1ncnc2c1c(-c1ccc(NC(=O)Nc3cc(C4(C(F)(F)F)CC4)no3)c3ccccc13)cn2C1CC1 [Example I-1, 1-(4-(4-amino-7-cyclopropyl-7H-pyrrolo[2,3-d]pyrimidin-5-yl)naphthalen-1-yl)-3-(3-(1-(trifluoromethyl)cyclopropyl)-isoxazol-5-yl)urea]	> 2000 nM
CC(C)(C)c1cc(NC(=O)Nc2ccc(-c3cn(C4CC4)c4ncnc(N)c34)c3cccnc23)on1 [Example I-2, 1-(5-(4-amino-7-cyclopropyl-7H-pyrrolo[2,3-d]pyrimidin-5-yl)quinolin-8-yl)-3-(3-(tert-butyl)isoxazol-5-yl)urea]	> 2000 nM
Nc1ncnc2c1c(-c1ccc(NC(=O)Nc3cc(C4CC4)no3)c3nccn13)cn2C1CC1 [Example I-119, 1-(5-(4-amino-7-cyclopropyl-7H-pyrrolo[2,3-d]pyrimidin-5-yl)imidazo[1,2-a]pyridin-8-yl)-3-(3-cyclopropylisoxazol-5-yl)urea]	200 to 500 nM
Nc1ncnc2c1c(-c1ccc(NC(=O)Nc3cc(C4(C(F)(F)F)CC4)on3)c3nc(C(F)(F)F)cn13)cn2C1CC1 [Example I-46, 1-(5-(4-amino-7-cyclopropyl-7H-pyrrolo[2,3-d]pyrimidin-5-yl)-2-(trifluoromethyl)-imidazo[1,2-a]pyridin-8-yl)-3-(5-(1-(trifluoromethyl)cyclo-propyl)isoxazol-3-yl)urea]	> 2000 nM
